Measurements taken from ChEMBL document CHEMBL1201862, “PubChem BioAssay data set” (2004).
One block for each compound: values may come before it. Active and inactive are the calls of the source.

Columns and labels:
[1] = molecular target: T1, Rac GTPase-activating protein 1 (Homo sapiens, UniProt Q9H0H5); assay: blockers of MgcRacGAP-driven Rac1 GTP hydrolysis – biochemical, ADP Hunter fluorescence, primary and confirmatory, confirmation (AID 624330); format: functional
T1 sequence (Q9H0H5 whole entry): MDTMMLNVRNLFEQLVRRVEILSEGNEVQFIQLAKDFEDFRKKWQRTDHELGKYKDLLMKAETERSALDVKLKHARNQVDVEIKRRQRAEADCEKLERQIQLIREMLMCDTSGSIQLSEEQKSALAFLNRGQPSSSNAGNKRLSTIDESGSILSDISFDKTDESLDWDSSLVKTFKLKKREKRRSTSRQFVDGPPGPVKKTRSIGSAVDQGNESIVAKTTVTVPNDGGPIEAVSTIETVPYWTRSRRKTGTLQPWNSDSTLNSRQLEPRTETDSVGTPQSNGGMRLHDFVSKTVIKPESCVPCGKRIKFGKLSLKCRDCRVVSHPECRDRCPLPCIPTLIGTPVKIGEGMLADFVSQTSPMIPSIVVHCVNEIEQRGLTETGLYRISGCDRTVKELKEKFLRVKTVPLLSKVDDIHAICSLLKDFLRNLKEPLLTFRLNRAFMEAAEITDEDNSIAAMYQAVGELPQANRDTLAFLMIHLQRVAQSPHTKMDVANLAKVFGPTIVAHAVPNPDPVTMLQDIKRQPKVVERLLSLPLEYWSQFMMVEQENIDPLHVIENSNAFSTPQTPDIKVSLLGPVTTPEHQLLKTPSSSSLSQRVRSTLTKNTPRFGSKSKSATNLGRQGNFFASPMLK

[2] = molecular target: T2, Corticotropin-releasing factor receptor 2/Corticotropin-releasing factor-binding protein (Homo sapiens, UniProt P24387+Q13324); assay: activators of CRF receptor 2 with binding protein – uHTS hits, confirmation (AID 602473); format: functional; details: read-out: EC50_Mean
T2 sequence (Q13324 whole entry): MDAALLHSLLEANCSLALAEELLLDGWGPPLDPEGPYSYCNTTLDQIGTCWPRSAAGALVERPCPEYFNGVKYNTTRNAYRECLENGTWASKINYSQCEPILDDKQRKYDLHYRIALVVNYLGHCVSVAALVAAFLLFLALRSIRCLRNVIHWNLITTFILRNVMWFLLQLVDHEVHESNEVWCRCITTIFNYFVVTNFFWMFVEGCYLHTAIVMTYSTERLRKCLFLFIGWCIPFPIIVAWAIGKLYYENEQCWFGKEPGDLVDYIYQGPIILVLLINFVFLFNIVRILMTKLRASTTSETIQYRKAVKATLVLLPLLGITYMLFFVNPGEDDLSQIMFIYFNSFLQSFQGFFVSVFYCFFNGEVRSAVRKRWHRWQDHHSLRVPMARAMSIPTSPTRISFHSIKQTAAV
T2 sequence (P24387 whole entry): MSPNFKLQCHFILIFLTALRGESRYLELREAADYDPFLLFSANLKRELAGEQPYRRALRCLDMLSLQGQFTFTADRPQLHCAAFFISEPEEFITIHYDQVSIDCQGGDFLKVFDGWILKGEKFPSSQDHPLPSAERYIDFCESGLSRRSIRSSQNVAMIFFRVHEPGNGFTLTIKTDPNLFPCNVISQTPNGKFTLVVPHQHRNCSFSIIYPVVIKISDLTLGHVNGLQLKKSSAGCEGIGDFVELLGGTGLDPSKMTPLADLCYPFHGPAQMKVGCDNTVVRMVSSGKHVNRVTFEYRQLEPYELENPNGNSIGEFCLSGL

[3] = molecular target: T2, Corticotropin-releasing factor receptor 2/Corticotropin-releasing factor-binding protein; assay: Dose Response confirmation of uHTS hits for small molecule antagonists of the CRF-binding protein and CRF-R2 receptor complex.; format: functional; details: read-out: IC50_Mean
[4] = molecular target: T3, Heat shock factor protein 1 (Mus musculus, UniProt P38532); assay: decrease of HSF1-responsive luciferase luminescence – cell-based, NIH3T3, dose retest, confirmation (AID 2382); format: functional;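 further: NIH3T3 fibroblasts with HSF1-driven luciferase reporter stressed by proteasome inhibitor MG132; luminescence from HSF1-driven luciferase expression after 8 hours of MG132 stress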
T3 sequence (P38532 whole entry): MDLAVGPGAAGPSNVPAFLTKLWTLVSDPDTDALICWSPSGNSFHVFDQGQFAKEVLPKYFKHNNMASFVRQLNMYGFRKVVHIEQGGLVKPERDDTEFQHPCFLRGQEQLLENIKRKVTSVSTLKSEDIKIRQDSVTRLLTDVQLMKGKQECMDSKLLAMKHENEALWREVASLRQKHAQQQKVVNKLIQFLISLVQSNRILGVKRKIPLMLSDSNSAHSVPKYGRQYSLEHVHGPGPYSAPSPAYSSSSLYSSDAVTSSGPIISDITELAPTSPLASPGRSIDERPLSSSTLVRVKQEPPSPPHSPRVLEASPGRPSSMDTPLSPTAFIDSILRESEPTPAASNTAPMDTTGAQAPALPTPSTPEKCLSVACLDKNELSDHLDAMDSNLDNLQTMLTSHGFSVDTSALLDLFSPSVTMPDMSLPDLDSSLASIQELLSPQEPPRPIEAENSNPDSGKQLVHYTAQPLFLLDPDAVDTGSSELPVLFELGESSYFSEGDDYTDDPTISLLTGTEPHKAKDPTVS

[5] = molecular target: T3, Heat shock factor protein 1; assay: enhancement of HSF1-driven luciferase signal – cell-based, NIH3T3, luminescence, dose retest, confirmation (AID 435004); format: functional;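 further: stress induced by proteasome inhibitor MG132 added 30 min after compound; luciferase reporter driven by HSF1 response element in NIH3T3 cells; actives raise luminescence as potentiators of the MG132 stress response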
[6] = molecular target: Cytochrome P450 3A4 (Homo sapiens, UniProt P08684);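 further: CYP3A4 tested as one member of a cytochrome P450 panel screen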
[7] = molecular target: Cytochrome P450 2C9 (Homo sapiens, UniProt P11712)
[8] = Luminescence Cell-Based Dose Response HTS to Identify Activators of Luciferase Translation or Activity in H4 […] Cells. [Related pubchem assays: 1829 (Project Summary), 1814 (Primary HTS)]; format: functional

Sequence of Cytochrome P450 2C9 (P11712 whole entry): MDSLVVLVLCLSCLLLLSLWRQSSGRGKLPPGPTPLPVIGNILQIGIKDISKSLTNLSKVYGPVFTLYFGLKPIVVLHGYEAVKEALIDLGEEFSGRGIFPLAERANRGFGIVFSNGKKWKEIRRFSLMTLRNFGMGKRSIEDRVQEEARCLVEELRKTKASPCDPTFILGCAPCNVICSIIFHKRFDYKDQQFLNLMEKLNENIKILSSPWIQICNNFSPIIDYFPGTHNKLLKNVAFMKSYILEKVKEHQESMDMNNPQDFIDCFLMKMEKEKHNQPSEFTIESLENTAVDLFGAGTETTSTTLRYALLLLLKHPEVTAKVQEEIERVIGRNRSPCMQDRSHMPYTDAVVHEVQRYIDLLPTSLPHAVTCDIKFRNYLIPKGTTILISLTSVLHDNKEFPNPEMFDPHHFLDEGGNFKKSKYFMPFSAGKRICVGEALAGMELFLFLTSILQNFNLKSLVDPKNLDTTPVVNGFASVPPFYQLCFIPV
Sequence of Cytochrome P450 3A4 (P08684 whole entry): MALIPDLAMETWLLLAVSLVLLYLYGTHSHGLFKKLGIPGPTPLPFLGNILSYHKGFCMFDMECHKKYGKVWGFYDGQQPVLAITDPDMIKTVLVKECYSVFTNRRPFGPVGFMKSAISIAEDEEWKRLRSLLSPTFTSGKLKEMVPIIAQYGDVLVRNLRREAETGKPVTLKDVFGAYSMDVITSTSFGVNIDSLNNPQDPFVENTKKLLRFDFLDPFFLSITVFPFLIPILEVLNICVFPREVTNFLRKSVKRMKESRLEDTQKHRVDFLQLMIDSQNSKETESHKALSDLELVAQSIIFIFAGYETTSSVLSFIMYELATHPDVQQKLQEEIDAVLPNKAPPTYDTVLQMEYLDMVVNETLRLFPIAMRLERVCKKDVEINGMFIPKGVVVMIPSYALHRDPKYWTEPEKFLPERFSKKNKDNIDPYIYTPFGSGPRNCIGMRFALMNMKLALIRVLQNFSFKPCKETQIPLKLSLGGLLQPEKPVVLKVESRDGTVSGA

- IC50 [1]: 94.5 µM (active)
Compound: CCN1CCN(CCOc2ccccc2OCc2ccccc2)CC1

- IC50 [1]: 59.6 µM (active)
Compound: COc1ccc(Br)cc1CN1CCC(N2CCCC2)CC1

- EC50 [2]: > 53 µM (inactive)
- IC50 [3]: > 47.1 µM (inactive)
Compound: Brc1ccc(-c2noc(CCc3ccccc3)n2)o1

- EC50 [4]: > 195 µM (not active)
Compound: CC(C)(C)c1ccc(/C=C(\C#N)C(=O)Nc2ccccn2)cc1

- IC50 [1]: 27.3 µM (active)
Compound: COc1cc(/C=N/NC(=O)c2ccoc2C)ccc1O

- EC50 [5]: > 260 µM (inactive)
Compound: Cc1onc(-c2ccccc2)c1C(=O)OCc1nnc(-c2ccccc2)o1

- EC50 [4]: > 195 µM (not active)
Compound: CCCC[C@@H]1C[C@H]1[C@@H](NC(=O)c1ccco1)c1ccc(Cl)cc1

- EC50 [5]: > 260 µM (inactive)
Compound: Cc1ccc(/C=C2\Oc3cc(OC(=O)N4CCOCC4)ccc3C2=O)cc1

- IC50 [1]: 79.4 µM (active)
Compound: COc1cc(/C=N/NC(=O)/C(=C\c2ccc3c(c2)OCO3)NC(=O)c2ccccc2)ccc1O

- IC50 [1]: 171 µM (active)
Compound: COc1cc([C@H]2OC[C@H]3[C@@H]2CO[C@H]3c2ccc(O)c(OC)c2)ccc1O [PINORESINOL]

- EC50 [2]: > 53 µM (inactive)
- IC50 [3]: < 0.368 µM (active)
Compound: COc1cccc(C(=O)Nc2cc(C(=O)NCc3ccc(C)cc3)ccc2N2CCC3(CC2)CC(c2cccc(Br)c2)=NO3)c1

- EC50 [4]: > 195 µM (not active)
Compound: CCOC(=O)c1c(S(=O)(=O)N2CCCCC2C)c(C)n(C)c1C (stereo unspecified)

- IC50 [1]: 54.6 µM (active)
Compound: COc1cc(/C=N\NC(=O)CNC(=O)C(c2ccccc2)c2ccccc2)ccc1O

- EC50 [2]: > 53 µM (inactive)
- IC50 [3]: > 47.1 µM (inactive)
Compound: O=C(Nc1ccccn1)C1CCN(S(=O)(=O)c2ccc3ccccc3c2)CC1

- EC50 [2]: > 53 µM (inactive)
- IC50 [3]: > 47.1 µM (inactive)
Compound: Cc1ccc(S(=O)(=O)N2CCN(C(=O)COc3ccc(C)nc3[N+](=O)[O-])CC2)c(C)c1

- EC50 [5]: > 260 µM (inactive)
Compound: CCN(CC)CCCN1C(=O)c2oc3ccccc3c(=O)c2C1c1cccc(OC)c1OC (stereo unspecified)

- EC50 [4]: > 195 µM (not active)
Compound: CCC(C)N(C(=O)C(F)(F)F)C(C(=O)NC1CCCCC1)c1ccncc1 (stereo unspecified)

- EC50 [5]: > 260 µM (inactive)
- AC50 [6]: 3.16 µM (inconclusive)
Compound: CCCn1c(C)nc2c(c1=O)c1nc3ccccc3nc1n2CCC1=CCCCC1

- EC50 [5]: > 260 µM (inactive)
Compound: CCOC(=O)c1c(CN2CCC(C)CC2)n(C)c2cc(Br)c(OC)cc12

- EC50 [5]: > 260 µM (inactive)
Compound: COc1ccc(C(=O)/C=C2/C(=O)Nc3ccccc32)cc1OC

- AC50 [7]: 12.6 µM (inconclusive)
- EC50 [5]: > 260 µM (inactive)
Compound: OC(CNCc1ccc(F)cc1)(c1ccc(F)cc1)c1ccc(F)cc1

- EC50 [4]: > 195 µM (not active)
Compound: Cc1ccc2[nH]c3c(c2c1)CCN(C)C3

- EC50 [2]: > 53 µM (inactive)
- IC50 [3]: > 47.1 µM (inactive)
Compound: COc1ccc(OC2C(=O)N(c3cc(C)ccc3C)C2c2ccc(OC)c(OC)c2)cc1 (stereo unspecified)

- EC50 [4]: > 195 µM (not active)
Compound: CCC(=O)N1CCc2cc(S(=O)(=O)NCCC(=O)Nc3ccccc3C)ccc21

- EC50 [2]: > 53 µM (inactive)
- IC50 [3]: > 47.1 µM (inactive)
Compound: COc1ccc(-c2noc(C(=O)NCc3ccc(F)cc3)n2)cc1OC

- EC50 [2]: > 53 µM (inactive)
- IC50 [3]: > 47.1 µM (inactive)
Compound: Cc1c(C(=O)N2CC(C(=O)N3CCCCC3)Oc3ccccc32)oc2ccccc12 (stereo unspecified)

- EC50 [4]: > 195 µM (not active)
Compound: CCC(C)[C@H](NC(=O)NCc1cccc(OC)c1)C(=O)O (stereo partly specified)

- IC50 [1]: 47.7 µM (active)
Compound: COc1cc(/C=C/C(=O)OCC(=O)N2CCC(Cc3ccccc3)CC2)ccc1O

- EC50 [2]: > 53 µM (inactive)
- IC50 [3]: > 47.1 µM (inactive)
Compound: Cc1nn(C(=O)c2c(-c3ccccc3)noc2C)c(C)c1N=Nc1cc(C(F)(F)F)cc(C(F)(F)F)c1

- EC50 [2]: > 53 µM (inactive)
- IC50 [3]: > 47.1 µM (inactive)
Compound: CCOc1ccc(OCCSc2nc(N)cc(=O)[nH]2)cc1

- EC50 [2]: > 53 µM (inactive)
- IC50 [3]: > 47.1 µM (inactive)
Compound: O=C(CCCc1cccs1)Nc1ccc2c(c1)OCO2

- EC50 [4]: > 195 µM (not active)
Compound: CC(=O)Nc1c(C(=O)Nc2ccc3c(c2)OCO3)oc2ccccc12

- EC50 [4]: > 195 µM (not active)
Compound: O=C(NCCN1CCCCC1)Nc1ccccc1Cl

- IC50 [1]: 78.1 µM (active)
Compound: O=C(CN1CCN(C2CCCCC2)CC1)Nc1ccccc1-c1ccccc1

- EC50 [4]: 14.8 µM (active)
Compound: COc1ccc(C)cc1NC(=O)C(=O)NNC(=O)COc1ccc(Cl)cc1

- EC50 [4]: > 195 µM (not active)
Compound: CN(C)/C=C/C(=O)c1ccc(S(=O)(=O)c2ccccc2)cc1

- EC50 [2]: > 53 µM (inactive)
- IC50 [3]: > 47.1 µM (inactive)
Compound: CCOc1ccccc1N1CCN(C(=O)C2CSC3(C)CCC(=O)N23)CC1 (stereo unspecified)

- EC50 [4]: > 195 µM (not active)
Compound: CC1Cc2ccccc2N1CC(=O)NC(=O)NCc1ccccc1 (stereo unspecified)

Compound: Cc1cc(O)nc(SCc2nc3ccccc3c(=O)n2-c2ccccc2C)n1
- EC50 [5]: > 260 µM (inactive)

- EC50 [4]: > 195 µM (not active)
Compound: COc1ccc2nnc(-c3ccc(C(F)(F)F)cc3)n2n1

- EC50 [5]: > 260 µM (inactive)
Compound: O=C(N/N=C/CCc1ccccc1)c1ccccc1

- EC50 [2]: > 53 µM (inactive)
- IC50 [3]: > 47.1 µM (inactive)
Compound: NC(=NOC(=O)COc1ccc(Br)cc1)c1ccncc1

- EC50 [2]: > 53 µM (inactive)
- IC50 [3]: > 47.1 µM (inactive)
Compound: COc1ccc(OC)c(CN2CCN(S(=O)(=O)c3ccc(NC(C)=O)cc3)CC2)c1

- EC50 [4]: > 195 µM (not active)
Compound: O=C(COc1ccc(Cl)cc1)N1CCCC1

- EC50 [5]: > 260 µM (inactive)
Compound: COC(=O)CNC(c1ccccc1)c1cc(Br)ccc1N (stereo unspecified)

- IC50 [1]: 96.8 µM (active)
Compound: COc1ccc(C)cc1NC(=O)C(NCC(O)c1ccccc1)c1ccccc1 (stereo unspecified)

- EC50 [2]: > 53 µM (inactive)
- IC50 [3]: > 47.1 µM (inactive)
Compound: CCOC(=O)c1cn2nc(Oc3cccc(F)c3)ccc2n1

- EC50 [2]: > 53 µM (inactive)
- IC50 [3]: > 47.1 µM (inactive)
Compound: CCC(C(=O)NCCN1CCOCC1)n1c2ccccc2c2nc(=O)cc(C)n21 (stereo unspecified)

- IC50 [1]: 87.9 µM (active)
Compound: Cc1ccc(C(C)C)c(OCCCCN2CCNCC2)c1

- EC50 [4]: > 195 µM (not active)
Compound: O=C(CSc1nnnn1CCCO)Nc1ccc2c(c1)OCO2

- EC50 [5]: > 260 µM (inactive)
Compound: CCOC(=O)C1CCCN(CC(=O)Nc2c(C(=O)OC)[nH]c3ccccc23)C1 (stereo unspecified)

- EC50 [5]: 85.4 µM (active)
Compound: Cc1[nH]n(-c2ccccc2)c(=O)c1/C=N/CCc1ccccc1

Compound: Cc1ccccc1-n1c(C)nnc1SCc1nc2ccccc2s1
- EC50 [8]: 33.1 µM (active)

- EC50 [4]: > 195 µM (not active)
Compound: C=CCNC(=O)c1c(C(F)(F)F)nn(C)c1Cl
